Assay results: US20220306617A1, “SUBSTITUTED 1,3-PHENYL HETEROARYL DERIVATIVES AND THEIR USE IN THE TREATMENT OF DISEASE” (NOVARTIS AG, priority 2019, published 2022)

Biological target: T1, abc isoform of human TMEM16A channel expressed in CHO cells (Homo sapiens, UniProt Q5XXA6, DEL476-501)
T1 construct: expressed in transfected cells; host or cells: CHO cells, doxycycline-inducible expression under Blasticidin/Zeocin selection
T1 sequence (Q5XXA6 with tags, fused parts or gaps isoform Q5XXA6-5 DEL539-564): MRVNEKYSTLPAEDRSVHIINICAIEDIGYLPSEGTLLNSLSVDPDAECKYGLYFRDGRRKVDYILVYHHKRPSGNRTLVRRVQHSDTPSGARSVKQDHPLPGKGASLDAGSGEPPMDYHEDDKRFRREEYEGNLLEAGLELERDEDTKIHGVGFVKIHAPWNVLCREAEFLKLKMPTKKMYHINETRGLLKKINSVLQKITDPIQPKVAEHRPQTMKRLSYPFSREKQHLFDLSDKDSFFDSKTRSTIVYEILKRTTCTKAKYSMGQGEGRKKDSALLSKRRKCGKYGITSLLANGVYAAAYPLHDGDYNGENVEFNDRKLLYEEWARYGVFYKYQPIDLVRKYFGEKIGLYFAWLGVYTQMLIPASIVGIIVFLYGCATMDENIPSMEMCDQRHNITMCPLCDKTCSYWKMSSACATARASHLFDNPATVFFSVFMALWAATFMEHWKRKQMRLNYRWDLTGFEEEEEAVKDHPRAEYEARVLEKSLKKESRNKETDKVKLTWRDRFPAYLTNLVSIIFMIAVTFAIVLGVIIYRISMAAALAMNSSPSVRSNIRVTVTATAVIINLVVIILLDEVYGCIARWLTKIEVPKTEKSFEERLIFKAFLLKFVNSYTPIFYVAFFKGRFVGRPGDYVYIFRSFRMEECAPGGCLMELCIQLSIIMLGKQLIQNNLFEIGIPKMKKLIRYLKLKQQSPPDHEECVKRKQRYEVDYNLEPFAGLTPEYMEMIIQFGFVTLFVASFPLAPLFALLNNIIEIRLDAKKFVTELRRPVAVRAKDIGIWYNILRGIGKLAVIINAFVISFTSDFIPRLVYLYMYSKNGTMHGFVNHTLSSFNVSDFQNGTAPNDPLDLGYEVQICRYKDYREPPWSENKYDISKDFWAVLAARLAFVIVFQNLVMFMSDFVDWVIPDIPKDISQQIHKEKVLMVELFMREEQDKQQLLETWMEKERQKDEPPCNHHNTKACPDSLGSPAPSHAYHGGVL
Assay: Automated patch clamping (QPatch) assay to measure TMEM16A activity in whole-cell
Assay type: cell-based
Settings: for EC50: CHO cells expressing human TMEM16A (abc), whole-cell automated patch clamp, Hill fit, read-out: TMEM16A QPATCH assay EC50 V3 EC50; for Emax: CHO, read-out: TMEM16A QPATCH assay EC50 V3 Assay Window (% TMEM16A max activation); for Emax / TMEM16A QPATCH assay EC50 V3 Assay Window (% TMEM16A max activation): maximum current at highest dose relative to reference potentiator at maximal concentration (upper limit) and vehicle (lower limit)
Protocol: Automated Patch Clamping Assay to Measure TMEM16A Activity in Whole-Cell
Chinese hamster ovary cells (CHO) cells expressing abc isoform of human TMEM16A channel (Ref) were grown in vented cell-culture flasks (Corning) containing cell culture medium (1×F-12 Ham, 10% FBS, 1% Penicillin-streptomycin, 5 μg/mL Blasticidin S HCl, 400 μg/mL Zeocin), maintained at 37° C. in an incubator with 5% C02, 95% 02 and 100% humidity. The cells were passaged every 2-3 days at 80-90% confluence by aspirating the cell culture medium, washing twice with 10 mL D-PBS then incubating with 4 mL Trypsin-EDTA for no longer than 5 minutes. Trypsin was neutralized with the addition of 32 mL growth medium to the cell suspension, the cells were counted using a viable-cell counter (Vi-CELL; Beckmann-Coulter) and new flasks were seeded at a cell density of 0.01, 0.02, or 0.05×10^6 cells per cm2 for 3, 2, or 1 day(s) growth, respectively. Cell suspension was diluted in the new 175 cm2 flask with 50 mL of growth medium. Doxycycline was used to induce the expression of TMEM16A channel protein and was added directly to the culture flask 18-24 hours in advance of assay at a final concentration of 1 μg/mL. Induced cells were washed with D-PBS and detached from their culture flasks by adding 10 mL of Detachin and incubating for 10 minutes. Once detached, 5 mL of QPatch assay medium (1×CHO-S-SFM II (Sigma), 25 mM HEPES) was added and the resultant cell suspension counted using the Vi-CELL viable cell counter. The optimal cell density for this QPatch assay is 2-5×1 06 cells/mL; re-adjusted as necessary with QPatch assay medium.
The ion channel activity of TMEM16A (abc) expressed in CHO cells was assed using an automated patch clamp system (Qpatch, Sophion). These systems use planar patch-clamp technology to enable high-resistance, continuous whole-cell recordings from multiple cells in parallel, whilst maintaining each individual cell as an isolated experiment. First, each well was primed with intracellular and extracellular solutions described below. Cells were spun down, washed and then resuspended using extracellular solution. Intracellular solution: 130 mM N-methyl-D-glucamine, 10 mM EGTA, 20 mM CaCl2, 1 mM MgCl2, 10 mM HEPES 10, 10 mM BAPTA, 99 mM Sucrose, 2 mM Mg-ATP, pH 7.3, 320 mOsm Extracellular solution: 130 mM N-methyl-D-glucamine, 10 mM EGTA, 20 mM CaCl2, 1 mM MgCl2, 10 mM HEPES 10, 10 mM BAPTA, 99 mM Sucrose, 2 mM Mg-ATP, pH 7.3, 320 mOsm. Resuspended cells were then added to each well and suction was applied from the intracellular side in order to position a cell on the chip aperture, form a high resistance (GO) seal and achieve a whole-cell recording configuration. Following successful whole cell access, cell membranes were maintained at a voltage of −70 mV until the voltage protocol is applied. From this voltage, membranes were depolarized to +70 mV for 1500 ms, and then hyperpolarized to […] before being depolarized again from −90 to +70 mV in a continuous ramp waveform. At the end of the ramp, the membrane voltage is stepped back to −70 mV until the next waveform was applied. Compounds were dissolved at 10 mM in 100% DMSO and then diluted into extracellular solution (0.3% DMSO final) to the desired final concentration. The assay lower and upper limit were defined as follow, average amplitude (nA) of the last 3 sweeps in the vehicle addition of each cell was considered the basal current (lower limit); the average maximum current response in 3 cells for a reference potentiator at maximal concentration (upper limit). Current values for each compound concentration were then plotted against […]. EC50 curves are fitted to concentration-response data using curve-fitting functions (Hill fit) within the QPatch software. Curve fitting is constrained between the lowest concentration (vehicle-only addition) and the highest current value measured within the concentration range. […]

SMILES | EC50 [nM] | Emax [%] | TMEM16A QPATCH assay EC50 V3 Assay Window (% TMEM16A max activation) [%]
C[C@@H](NC(=O)c1cnc(-c2cccc(-c3cc(C(=O)N[C@H](C)C4CC4)n(CCO)n3)c2)o1)C1CC1 [Example 10.1, N-((R)-1-Cyclopropylethyl)-2-(3-(5-(((R)-1-Cyclopropylethyl)Carbamoyl)-1-(2-Hydroxyethyl)-1H-Pyrazol-3-yl)Phenyl)Oxazole-5-Carboxamide] | 320 | 101 | 
COC(=O)[C@@H](NC(=O)c1cnc(-c2cccc(-c3cc(C(=O)N[C@@H](C)C4CC4)n(CC(O)C(F)(F)F)n3)c2)o1)C(C)C (single isomer, unassigned) [8.1 (ii)] | 20 |  | 124
COC(=O)[C@H](CC(C)C)NC(=O)c1cc(-c2cccc(-c3ncc(C(=O)N[C@@H](CC(C)C)C(=O)OC)o3)c2)[nH]n1 [Example 3.58, (S)-Methyl 2-(2-(3-(3-(((S)-1-Methoxy-4-Methyl-1-Oxopentan-2-Yl)Carbamoyl)-1H-Pyrazol-5-Yl)Phenyl)Oxazole-5-Carboxamido)-4-Methylpentanoate] | 270 | 77 | 
CCOC(=O)[C@@H](NC(=O)c1cnc(-c2cccc(-c3cc(C(=O)NC(CC)CC)n(CCO)n3)c2)o1)C(C)C [Example 4.1, (S)-Ethyl 2-(2-(3-(1-(2-Hydroxyethyl)-5-(Pentan-3-Ylcarbamoyl)-1H-Pyrazol-3-Yl)Phenyl)Oxazole-5-Carboxamido)-3-Methylbutanoate] | 27 | 81 | 
CCC(CC)NC(=O)c1cnc(-c2cccc(-c3cc(C(=O)N[C@H](C)C(C)C)n[nH]3)c2)o1 [Example 3.37, (R)-2-(3-(3-((3-Methylbutan-2-Yl)Carbamoyl)-1H-Pyrazol-5-Yl)Phenyl)-N-(Pentan-3-Yl)Oxazole-5-Carboxamide] | 200 | 109 | 
COC(=O)[C@@H](NC(=O)c1cnc(-c2cccc(-c3nnc(C(=O)NC(C4CC4)C4CC4)[nH]3)c2)o1)C(C)C [Example 12.9, (S)-Methyl 2-(2-(3-(5-((Dicyclopropylmethyl)Carbamoyl)-4H-1,2,4-Triazol-3-Yl)Phenyl)Oxazole-5-Carboxamido)-3-Methylbutanoate] | 20 | 134 | 
C[C@@H](NC(=O)c1n[nH]c(-c2cccc(-c3ncc(C(=O)N[C@H](C)C4CC4)o3)c2)n1)C1CC1 [Example 13.2, N-((R)-1-Cyclopropylethyl)-2-(3-(3-(((R)-1-Cyclopropylethyl)Carbamoyl)-1H-1,2,4-Triazol-5-Yl)Phenyl)Oxazole-5-Carboxamide] | 650 | 77 | 
CCOC(=O)[C@@H](NC(=O)c1cnc(-c2cccc(-c3cc(C(=O)NC(C4CC4)C(F)(F)F)[nH]n3)c2)o1)C(C)C (single isomer, unassigned) [Example 2.3 (ii)] | 80 |  | 97
CCC(CC)NC(=O)c1cnc(-c2cccc(-c3cc(C(=O)N[C@H](C)C4CC4)[nH]n3)c2)o1 [Example 3.56, (R)-2-(3-(5-((1-Cyclopropylethyl)Carbamoyl)-1H-Pyrazol-3-Yl)Phenyl)-N-(Pentan-3-Yl)Oxazole-5-Carboxamide] | 90 | 78 | 
CCC(CC)NC(=O)c1cnc(-c2cccc(-c3cc(C(=O)N[C@@H](C)C4CC4)n(C4COC4)n3)c2)o1 [Example 9.3, (S)-2-(3-(5-((1-Cyclopropylethyl)Carbamoyl)-1-(Oxetan-3-Yl)-1H-Pyrazol-3-Yl)Phenyl)-N-(Pentan-3-Yl)Oxazole-5-Carboxamide] | 400 | 143 | 
CCC(CC)NC(=O)c1cnc(-c2cccc(-c3cc(C(=O)N[C@@H](C)[C@@H]4CCCO4)n[nH]3)c2)o1 (single isomer, unassigned) [3.0 (ii)] | 950 | 79 | 
COC(=O)[C@@H](NC(=O)c1cnc(-c2cccc(-c3cc(C(=O)NC(C4CC4)C4CC4)[nH]n3)c2)o1)C(C)C [Example 1.29, (S)-Methyl 2-(2-(3-(5-((Dicyclopropylmethyl)Carbamoyl)-1 H-Pyrazol-3-yl)Phenyl)Oxazole-5-Carboxamido)-3-Methylbutanoate] | 10 | 113 | 
CCC(CC)NC(=O)c1cnc(-c2cccc(-c3cc(C(=O)N[C@@H](C)C4CC4)n(CC(C)(C)O)n3)c2)o1 [Example 8.0, (S)-2-(3-(5-((1-Cyclopropylethyl)Carbamoyl)-1-(2-Hydroxy-2-Methylpropyl)-1H-Pyrazol-3-Yl)Phenyl)-N-(Pentan-3-Yl)Oxazole-5-Carboxamide] | 200 | 106 | 
CCC(CC)NC(=O)c1cnc(-c2cccc(-c3cc(C(=O)N[C@H](C(=O)OC)C(C)C)n[nH]3)c2)o1 [Example 3.41, (S)-Methyl 3-Methyl-2-(5-(3-(5-(Pentan-3-Ylcarbamoyl)Oxazol-2-Yl)Phenyl)-1H-Pyrazole-3-Carboxamido)Butanoate] | 130 | 89 | 
CCC(CC)NC(=O)c1cc(-c2cccc(-c3ncc(C(=O)N[C@@H](CC(C)C)C(=O)NCC(=O)OC(C)(C)C)o3)c2)[nH]n1 [Example 1.16, (S)-Tert-Butyl 2-(4-Methyl-2-(2-(3-(3-(Pentan-3-Ylcarbamoyl)-1 H-Pyrazol-5-yl)Phenyl)Oxazole-5-Carboxamido)Pentanamido)Acetate] | 830 | 100 | 
COC(=O)[C@H](CC1CCCCC1)NC(=O)c1cnc(-c2cccc(-c3nnc(C(=O)N[C@@H](C)C4CC4)[nH]3)c2)o1 [Example 12.17, (S)-Methyl 3-Cyclohexyl-2-(2-(3-(5-(((S)-1-Cyclopropylethyl)Carbamoyl)-4H-1,2,4-Triazol-3-Yl)Phenyl)Oxazole-5-Carboxamido)Propanoate] | 470 | 77 | 
